Measurements reported in US6592821B1, “Focusing of microparticles in microfluidic systems” (Caliper Technologies Corp., priority 1999, dated 2003).

Tests used:
Assay type in all cases: cell-based
[1] = system: HL60 cells; test: Annexin-V assay for apoptosis in microfluidic device; conditions: HL60 cells treated for four hours; FIG. 12, untreated control FIG. 13
[2] = system: U937 cells; test: as above; conditions: U937 cells treated to induce apoptosis; FIG. 7, untreated control FIG. 6
Method: In an Annexin-V assay, change in the outer membrane of apoptotic cells is detected. A membrane component, phosphatidylserine (PS) is translocated to the outer layer. Annexin-V binds to PS and is conjugated to biotin to allow secondary reactions to fluorescently labeled Streptavidin for detection. U937 cells were treated with Campthotecin to induce apoptosis. The cells were harvested and washed in phosphate buffered saline (PBS). Cells were incubated with Annexin-V-Biotin (Boehringer Mannheim) in HEPES buffer, and then incubated with 5 μg streptavidin-Cy5 (Amersham) and […] of Calcein-AM dye in HEPES buffer. The HEPES buffer solution contained 10 mM HEPES, pH 7.4; 140 mM NaCl; and a 5 mM CaCl2. The cells were washed and resuspended in HEPES buffer with 8.5% sucrose and loaded in a microfluidic device for analysis. Fluorescence was detected using excitation at 488 nm and 635 nm, and emission was read at 525 nm and 682 nm.

[3] = system: HL-60 cells; test: TUNEL assay for apoptosis in microfluidic device; conditions: HL-60 cells treated for 6 hours; FIG. 8, untreated control FIG. 9
[4] = system: U937 cells; test: TUNEL assay for apoptosis in microfluidic device; conditions: U937 cells treated to induce apoptosis; FIG. 5, untreated control FIG. 4
Method: A TUNEL assay (TdT (Terminal deoxynucleotidyl transferase)-mediated dUTP Nick End Labeling) was used to measure cellular apoptosis in accordance with the above-described methods and systems. In a TUNEL Assay, damaged DNA is labeled with fluorescinated nucleotides. Terminal deoxynucleotidyl transferase (TdT) binds to exposed 3′ ends of DNA fragments generated in response to apoptotic signals and catalyzes the addition of fluorescein-labeled deoxynucleotides. U937 cells were treated with Campthotecin to induce apoptosis. The cells were then harvested and fixed with 4% formaldehyde and stored in 80% ethanol at +4° C. until labeling was performed.
The cells were rehydrated in TBS buffer. They were then treated with 20 μg/ml of proteinase K for 5 minutes and resuspended in equilibration buffer. The cells were incubated in a working TdT labeling reaction mixture from Oncogene Research Products containing TdtT enzyme and FragEL TdT labeling reaction mix. […]
After washing the cells in TBS, they were resuspended in Hanks' Balanced Salt Solution with 10% OPTIPREP at 5×10^6/ml and loaded in a microfluidic device having the channel geometry shown in FIG. 1A, for analysis. Fluorescence was detected using 488 nm excitation, while emission was read at 525 nm and 680 nm.

CC[C@@]1(O)C(=O)OCc2c1cc1n(c2=O)Cc2cc3ccccc3nc2-1 [Campthotecin] was tested, and the “apoptotic cells (Annexin-V-Cy5 labeling vs Calcein live cell count)” value [1] was “almost all cells are apoptotic”, the “apoptotic cells (Annexin-V-Cy5 peaks vs Calcein live cell count)” value [2] was “much greater number of peaks representing apoptotic cells” and the “apoptotic cells labeled at DNA damage points vs total cell count” value [3] was “almost all cells had sustained apoptotic DNA damage”. The “apoptotic cells (fluorescein end labeled nucleic acid peaks vs SYTO-62 cell peaks)” value [4] was “corresponding peaks are seen on both the lower and upper lines, indicating the presence of apoptotic cells”.
